{"source": "patent US20220031800A1", "about": "“PEPTIDES FOR TREATING NON-EXUDATIVE MACULAR DEGENERATION AND OTHER DISORDERS OF THE EYE” (Allegro Pharmaceuticals, LLC, priority 2019, published 2022)", "key": {"primary human RPE cells": {"tested_on": "primary human RPE cells", "assay": "Mitochondrial membrane potential (JC-1) in primary human RPE cells exposed to hydroquinone", "type": "cell-based", "conditions": "0.4 mM risuteganib co-treatment with HQ 125-180 uM", "procedure": "Purpose: To determine if risuteganib protects against hydroquinone (HQ)-mediated cell injury, elevated ROS level and reduced mitochondrial membrane potential (Δψm) in cultured human RPE cells. Elevated ROS levels increase oxidative stress in the cells, leading to reduced cell health and cell death. Loss of ΔΨm is a marker for early cell death. Methods: Primary human RPE cells were seeded on collagen-coated 96-well plates in triplicates at 8K, 10K and […] cells/well, respectively. Cells reached 80% to 100% confluence 24 hours after plating, and confluent cells were then grown for an additional 4 or 5 days until growth was density arrested. On day 6 after plating, cells in the plate upper half were loaded with 20 μM CM-H2DCFDA (measures ROS level) and in the plate lower half with 10 μM JC-1 (measures Δψm) for 30 minutes at 37° C. […] For the ROS and Δψm assays, a fluorescence plate reader was used to quantify ROS production (490-nm excitation, 522-nm emission), and green monomer of JC-1 (490-nm excitation, 522-nm emission) and red JC-1 aggregate (535-nm excitation, 590-nm emission), respectively. […] The WST reagent was quantified with a plate reader at 440 nm and a reference wavelength at 690 nm. Data were normalized to untreated control as 100% and were expressed as the mean±SD."}, "[1]": {"tested_on": "study eye of subjects with intermediate non-exudative AMD", "assay": "Microperimetry (mean retinal sensitivity, number of loci summed)", "type": "in vivo, human", "source_text": "Table 9, below, summarizes number of loci with reduced retinal sensitivity summed across assessments using a 20-dB threshold, an 11-dB threshold, and by measuring absolute scotoma."}, "[2]": {"tested_on": "primary mouse Müller cells", "assay": "Trypan blue viability of primary mouse Müller cells exposed to kainic acid", "type": "cell-based, CD1 mice", "conditions": "1.0 mg/mL risuteganib alone", "source_text": "Purpose: Investigate neuroprotective properties of risuteganib in primary mouse Müller cells exposed to kainic acid, a neuroexcitatory compound that activates glutamate receptors, resulting in overstimulation and cell death. Retinal Müller cells support normal functions of neurons and their dysregulation can leads to loss of homeostasis and neuronal cell death.\nMethods: Fresh retina were collected from CD1 mice and then mechanically dissociated with sterile Pasteur pipette into small aggregates and seeded into 35 mm culture dishes. All cultures were first left unchanged for 5-6 days and then replenished every 3-4 days. When the cell growth had reached around 80% confluency, retinal aggregates and debris were removed by media washes to form a purified cell monolayer. Cells were then exposed to the experimental conditions: (1) untreated control, (2) 1.0 mg/mL risuteganib, (3) 500 μM kainic acid (KA), and (4) 1.0 mg/mL risuteganib for 24 hours before 500 μM kainic acid exposure. 48 hours after kainic acid treatment, dead and live cell numbers were measured using Trypan blue exclusion assay on a hemocytometer."}, "[3]": {"tested_on": "human retinal Müller cells (MIO-M1)", "assay": "Mitochondrial membrane potential (JC-1) in human Müller cells (MIO-M1)", "type": "cell-based", "conditions": "1× of 1 mg/50 μL, 24 hours; normalized to untreated control as 100%", "procedure": "Purpose: To determine the effects of risuteganib on the mitochondrial membrane potential (ΔΨm) in cultured human retinal Müller cells (MIO-M1). Loss of ΔΨm is a marker for early cell death.\nMethods: The immortalized human retinal Müller cell line (MIO-M1) was obtained from the Department of Cell Biology of the University College, London. Cells were cultured in Dulbecco's Modified Eagle's Medium (DMEM) and plated in 24-well plates for 24 hours before treatment with 1× concentration of 1 mg/50 μL risuteganib, ranibizumab, bevacizumab, or aflibercept. Dosage was based on clinical dose of each compound. The experiments were repeated 3 times with 6 replicates each. After 24 hours drug treatment, the ΔΨm was measured using the JC-1 kit, a cationic dye that fluoresces red within the mitochondria of healthy, live cells. In the stressed or apoptotic cells, the mitochondrial membrane potential collapses and the cationic dye fluoresces green. First, cells were rinsed with fresh media and then incubated with the JC-1 reagent for 15 minutes at 37 degrees C. The dyes were then removed, and phosphate buffered saline was added to each well. The Red fluorescence (live cells) was read at EX 550 nm and EM 600 nm. The Green fluorescence (apoptotic cells) was read at EX 483 nm and EM 535 nm. The changes in ΔΨm were calculated by the ratio of red to green fluorescence. […]"}, "[4]": {"tested_on": "human RPE cells (ARPE-19)", "assay": "Trypan blue viability of human RPE cells (ARPE-19) exposed to hydrogen peroxide", "type": "cell-based", "conditions": "1.0 mg/mL risuteganib alone", "procedure": "Purpose: Investigate cytoprotective properties of risuteganib in human RPE cells (ARPE-19) exposed to hydrogen peroxide, which is a reactive oxygen species that can induce cell death at elevated levels. Methods: ARPE-19 cells were cultured in laminin-coated trans-wells for 2 weeks to induce differentiation. Cells were then exposed to the experimental conditions: […]"}}, "note": "Square brackets hold non-standard residues; d marks the D form. Peptide text beside a SMILES is read from it. Cya = N[C@@H](CS(=O)(=O)O)C(=O)O"}
{"smiles": "C[C@@H](O)[C@H](NC(=O)[C@H](CS(=O)(=O)O)NC(=O)CNC(=O)[C@H](CCCNC(=N)N)NC(=O)CN)C(=O)N1CCC[C@H]1C(=O)O", "note": "[risuteganib, Glycyl-L-arginylglycyl-3-sulfo-L-alanyl-L-threonyl-L-proline] (H-GRG[Cya]TP-OH)", "values": [{"measurement": "Improvement of HQ-reduced Δψm", "setting": "primary human RPE cells", "value": 16, "unit": "%"}, {"measurement": "Microperimetry number of loci summed change, median", "setting": "[1]; Week 12 change, Group 2 (1 mg IVT day 1 + wk 16)", "value": 4.0}, {"measurement": "Microperimetry number of loci summed change, mean", "setting": "[1]; Week 12 change, Group 2 (1 mg IVT day 1 + wk 16), increase = worsening", "value": 6.1}, {"measurement": "Microperimetry number of loci summed (reduced sensitivity), mean", "setting": "[1]; Week 32, Group 2 (1 mg IVT day 1 + wk 16)", "value": 80.7}, {"measurement": "Microperimetry number of loci summed change, median", "setting": "[1]; Week 32 change, Group 1 crossover (sham day 1, 1 mg IVT wk 16)", "value": "−1.0"}, {"measurement": "Microperimetry number of loci summed change, median", "setting": "[1]; Week 32 change, Group 2 (1 mg IVT day 1 + wk 16)", "value": "−3.0"}, {"measurement": "Decrease (improvement) in number of summed loci with reduced retinal sensitivity", "setting": "[1]; risuteganib responders at Week 32 (FIG. 7)", "value": 17.75}, {"measurement": "Change in cell viability, treatment alone", "setting": "[2]", "value": "did not induce detectable change in cell viability"}, {"measurement": "Mitochondrial membrane potential (ΔΨm, red/green JC-1 ratio)", "setting": "[3]", "value": "109.3±4.91"}, {"measurement": "Change in cell viability, treatment alone", "setting": "[4]", "value": "did not induce detectable change in cell viability"}]}
